Reference: US9999690B2, “Labeled compounds and methods of imaging, diagnosing cartilage disorders and diseases, and monitoring cartilage health using labeled and unlabeled compounds” (Perosphere Inc., priority 2013, dated 2018)

What was measured:
[1] = Rat blood PK and blood to serum ratio, Group 4; format: in vivo
Experimental: (§1) A study was conducted to determine the pharmacokinetics, rates and routes of excretion with mass baseline and tissue distribution of radioactivity, after a single intravenous dose administration of formula XIII (also referred to as [^14C]DAP) was administered to the rats by tail vein intravenous injection at a
(§2) The study was conducted on 19 male rats divided into 4 groups. The first group of 6 rats was used for blood collection (Group 1); the second group of 4 rats was used for urine, feces, cage rinses and wipes and carcasses collection (Group 2); the third group of 4 rats was used for expired air collection (Group 3); the fourth group of 5 rats was used for terminal blood/serum and tissue distribution by Quantitative Whole-Body Autoradiography (QWBA) (Group 4).
(§3) For Group 4, formula XIII (QWBA was run at 1, 8, 12, 24 and 72 hours post dose. After terminal blood collection, each euthanized animal was frozen in a hexane/dry ice bath and embedded in a 2% carboxymethylcellulose matrix according to MPI Research SOP ADME-112. The embedded carcasses were sectioned according to MPI Research SOP ADME-113 on a Leica CM3600 Cyromacrotome set to maintain −10 to −30° C. At least four fortified quality control standards of known radioactive concentration were placed into the frozen block prior to sectioning and used for section thickness quality control. The quality control standards were sectioned under the same conditions as the specimen. The intrasection and intersection variation of collected sections were determined by analyzing the quality control standards. Section variation must be less than 20% for quantitative analysis. Sections that were approximately 40μm thick were taken in the sagittal plane. Appropriate sections selected at various levels of interest in the block were collected to encompass the following tissues, organs, and biological fluids, where possible: adrenal gland, bladder (urinary) and contents (urine), blood (cardiac), bone, bone marrow, brain, eye, fat (brown), fat (white), heart, kidney, large intestine/cecum and contents, liver, lung, muscle, pancreas, prostate, salivary glands, skin, small intestine and contents, spleen, stomach and contents, testes, thymus, thyroid, mesenteric lymph nodes, and epididymis. A set of sections were mounted, exposed to phosphor imaging screens and scanned using the Storm 860 image acquisition system according to MPI Research SOP ADME-112. Quantification, relative to the calibration standards, were performed by image densitometry using MCID™ image analysis software according to MPI Research SOP ADME-114. A standard curve was constructed from the integrated response (MDC/mm2) and the nominal concentrations of the [^14C]Glucose calibration standards. Relative error should be less than 0.5 for each point on the curve. The concentrations of radioactivity were expressed as μCi/g and were converted to μg or ng-equivalents of DAP per gram of sample (μg- or ng-eq/g) using the specific activity of administered [^14C]DAP dose formulation. A lower limit of quantification (LLOQ) was applied to the data. The LLOQ was determined using the radioactive concentration of the lowest calibration standard used to generate a calibration curve divided by the specific activity of the dose formulation (μCi/ug). Artifacts, such as those produced by dislodged contents of the alimentary canal, were excluded from analysis during image analysis.

[2] = Tissue distribution of radioactivity by Quantitative Whole-Body Autoradiography (QWBA), Group 4; format: in vivo; conditions: rat
Experimental: as §1, §2, §3

[2H]C1([2H])N(CCCNC(=O)[C@@H](N)CCCNC(=N)N)C([2H])([2H])C([2H])([2H])N(CCCNC(=O)[C@@H](N)CCCNC(=N)N)C1([2H])[2H] [formula XIII]
Blood:Serum Ratio ([1]; rat Group 4, 1 hrs, rat 401M): 0.44 | Blood:Serum Ratio ([1]; rat Group 4, 8 hrs, rat 402M): 1.32 | Blood:Serum Ratio ([1]; rat Group 4, 12 hrs, rat 403M): 1.84 | Blood:Serum Ratio ([1]; rat Group 4, 24 hrs, rat 404M): 2.27 | Blood:Serum Ratio ([1]; rat Group 4, 72 hrs, rat 405M): 2.53 | distribution to cartilage and tissues (autoradiograph) ([2]; 1 hour post dose, FIG. 1): distribute very well to cartilage and tissues | localization in cartilage and tissues (autoradiograph) ([2]; after 8 hours, FIG. 2): no longer localized in all of the regions identifiable in FIG. 1 | Concentration of Radioactivity in Bone marrow ([2]; single IV 2 mg/kg, 1 Hour): 6820 ng Equivalents [^14C]DAP/g | Concentration of Radioactivity in Cartilage ([2]; single IV 2 mg/kg, 1 Hour): 62602 ng Equivalents [^14C]DAP/g | Concentration of Radioactivity in Kidney ([2]; single IV 2 mg/kg, 1 Hour): 51966 ng Equivalents [^14C]DAP/g | Concentration of Radioactivity in Kidney (cortex) ([2]; single IV 2 mg/kg, 1 Hour): 55358 ng Equivalents [^14C]DAP/g | Concentration of Radioactivity in Kidney (medulla) ([2]; single IV 2 mg/kg, 1 Hour): 19308 ng Equivalents [^14C]DAP/g | Concentration of Radioactivity in Large intestinal contents ([2]; single IV 2 mg/kg, 1 Hour): BLQ (Below limit of quantitation (<172 ng equivalents [^14C]PER977/g)) | Concentration of Radioactivity in Liver ([2]; single IV 2 mg/kg, 1 Hour): 6377 ng Equivalents [^14C]DAP/g | Concentration of Radioactivity in Small intestine ([2]; single IV 2 mg/kg, 1 Hour): 6838 ng Equivalents [^14C]DAP/g | Concentration of Radioactivity in Thymus ([2]; single IV 2 mg/kg, 1 Hour): 10420 ng Equivalents [^14C]DAP/g | Concentration of Radioactivity in Urinary bladder ([2]; single IV 2 mg/kg, 1 Hour): 26725 ng Equivalents [^14C]DAP/g | Concentration of Radioactivity in Urine ([2]; single IV 2 mg/kg, 1 Hour): 195176 ng Equivalents [^14C]DAP/g | Concentration of Radioactivity in Bone marrow ([2]; single IV 2 mg/kg, 8 Hours): 5524 ng Equivalents [^14C]DAP/g | Concentration of Radioactivity in Cartilage ([2]; single IV 2 mg/kg, 8 Hours): 13038 ng Equivalents [^14C]DAP/g | Concentration of Radioactivity in Kidney ([2]; single IV 2 mg/kg, 8 Hours): 43380 ng Equivalents [^14C]DAP/g | Concentration of Radioactivity in Kidney (cortex) ([2]; single IV 2 mg/kg, 8 Hours): 45541 ng Equivalents [^14C]DAP/g | Concentration of Radioactivity in Kidney (medulla) ([2]; single IV 2 mg/kg, 8 Hours): 3454 ng Equivalents [^14C]DAP/g | Concentration of Radioactivity in Large intestinal contents ([2]; single IV 2 mg/kg, 8 Hours): 510 ng Equivalents [^14C]DAP/g | Concentration of Radioactivity in Liver ([2]; single IV 2 mg/kg, 8 Hours): 3150 ng Equivalents [^14C]DAP/g | Concentration of Radioactivity in Small intestine ([2]; single IV 2 mg/kg, 8 Hours): 6643 ng Equivalents [^14C]DAP/g | Concentration of Radioactivity in Thymus ([2]; single IV 2 mg/kg, 8 Hours): 15093 ng Equivalents [^14C]DAP/g | Concentration of Radioactivity in Urinary bladder ([2]; single IV 2 mg/kg, 8 Hours): 1429 ng Equivalents [^14C]DAP/g | Concentration of Radioactivity in Urine ([2]; single IV 2 mg/kg, 8 Hours): 8374 ng Equivalents [^14C]DAP/g | Concentration of Radioactivity in Bone marrow ([2]; single IV 2 mg/kg, 12 Hours): 4948 ng Equivalents [^14C]DAP/g | Concentration of Radioactivity in Cartilage ([2]; single IV 2 mg/kg, 12 Hours): 7749 ng Equivalents [^14C]DAP/g | Concentration of Radioactivity in Cerebellum ([2]; single IV 2 mg/kg, 12 Hours): BLQ (Below limit of quantitation (<172 ng equivalents [^14C]PER977/g)) | Concentration of Radioactivity in Cerebrum ([2]; single IV 2 mg/kg, 12 Hours): BLQ (Below limit of quantitation (<172 ng equivalents [^14C]PER977/g)) | Concentration of Radioactivity in Gastric mucosa ([2]; single IV 2 mg/kg, 12 Hours): 2118 ng Equivalents [^14C]DAP/g | Concentration of Radioactivity in Kidney ([2]; single IV 2 mg/kg, 12 Hours): 40930 ng Equivalents [^14C]DAP/g | Concentration of Radioactivity in Kidney (cortex) ([2]; single IV 2 mg/kg, 12 Hours): 48959 ng Equivalents [^14C]DAP/g | Concentration of Radioactivity in Kidney (medulla) ([2]; single IV 2 mg/kg, 12 Hours): 2981 ng Equivalents [^14C]DAP/g | Concentration of Radioactivity in Large intestinal contents ([2]; single IV 2 mg/kg, 12 Hours): 4752 ng Equivalents [^14C]DAP/g | Concentration of Radioactivity in Liver ([2]; single IV 2 mg/kg, 12 Hours): 3330 ng Equivalents [^14C]DAP/g
